According to PMC11870743, “Endothelial OX40 activation facilitates tumor cell escape from T cell surveillance through S1P/YAP-mediated angiogenesis” (The Journal of Clinical Investigation, 2025):

Molecular target: T1, YAP (Yes 1–associated protein), purified (Homo sapiens, UniProt P46937)
T1 construct: gene YAP1; purified YAP protein
Test: microscale thermophoresis
Type: binding
Settings: read-out: dissociation constant

T1 sequence (P46937 whole entry): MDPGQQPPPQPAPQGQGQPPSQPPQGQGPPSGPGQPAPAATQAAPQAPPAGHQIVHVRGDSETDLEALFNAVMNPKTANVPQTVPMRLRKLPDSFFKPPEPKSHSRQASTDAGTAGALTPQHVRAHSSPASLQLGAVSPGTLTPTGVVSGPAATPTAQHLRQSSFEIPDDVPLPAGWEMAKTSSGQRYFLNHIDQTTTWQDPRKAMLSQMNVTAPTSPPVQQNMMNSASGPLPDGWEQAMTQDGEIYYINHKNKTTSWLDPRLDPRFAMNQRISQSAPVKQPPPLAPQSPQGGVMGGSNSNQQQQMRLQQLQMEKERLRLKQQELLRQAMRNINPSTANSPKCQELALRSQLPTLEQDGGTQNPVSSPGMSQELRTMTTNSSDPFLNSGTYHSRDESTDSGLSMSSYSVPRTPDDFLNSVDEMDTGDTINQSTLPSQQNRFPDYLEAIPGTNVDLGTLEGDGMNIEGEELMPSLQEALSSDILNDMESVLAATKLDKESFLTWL

`CCCCCCCCCCCCC/C=C/[C@@H](O)[C@@H](N)COP(=O)(O)O` [sphingosine 1-phosphate] gave a Kd of 13 µM.
